We go through 20 compounds from US9840498B2, “Substituted quinazolin-4-one derivatives” (NOVARTIS AG, priority 2013, dated 2017).

Where only a bound is given, the exact number is not on record here.

Sequence of human phosphoinositide-3 kinase (PI3K) alpha (P42336 whole entry): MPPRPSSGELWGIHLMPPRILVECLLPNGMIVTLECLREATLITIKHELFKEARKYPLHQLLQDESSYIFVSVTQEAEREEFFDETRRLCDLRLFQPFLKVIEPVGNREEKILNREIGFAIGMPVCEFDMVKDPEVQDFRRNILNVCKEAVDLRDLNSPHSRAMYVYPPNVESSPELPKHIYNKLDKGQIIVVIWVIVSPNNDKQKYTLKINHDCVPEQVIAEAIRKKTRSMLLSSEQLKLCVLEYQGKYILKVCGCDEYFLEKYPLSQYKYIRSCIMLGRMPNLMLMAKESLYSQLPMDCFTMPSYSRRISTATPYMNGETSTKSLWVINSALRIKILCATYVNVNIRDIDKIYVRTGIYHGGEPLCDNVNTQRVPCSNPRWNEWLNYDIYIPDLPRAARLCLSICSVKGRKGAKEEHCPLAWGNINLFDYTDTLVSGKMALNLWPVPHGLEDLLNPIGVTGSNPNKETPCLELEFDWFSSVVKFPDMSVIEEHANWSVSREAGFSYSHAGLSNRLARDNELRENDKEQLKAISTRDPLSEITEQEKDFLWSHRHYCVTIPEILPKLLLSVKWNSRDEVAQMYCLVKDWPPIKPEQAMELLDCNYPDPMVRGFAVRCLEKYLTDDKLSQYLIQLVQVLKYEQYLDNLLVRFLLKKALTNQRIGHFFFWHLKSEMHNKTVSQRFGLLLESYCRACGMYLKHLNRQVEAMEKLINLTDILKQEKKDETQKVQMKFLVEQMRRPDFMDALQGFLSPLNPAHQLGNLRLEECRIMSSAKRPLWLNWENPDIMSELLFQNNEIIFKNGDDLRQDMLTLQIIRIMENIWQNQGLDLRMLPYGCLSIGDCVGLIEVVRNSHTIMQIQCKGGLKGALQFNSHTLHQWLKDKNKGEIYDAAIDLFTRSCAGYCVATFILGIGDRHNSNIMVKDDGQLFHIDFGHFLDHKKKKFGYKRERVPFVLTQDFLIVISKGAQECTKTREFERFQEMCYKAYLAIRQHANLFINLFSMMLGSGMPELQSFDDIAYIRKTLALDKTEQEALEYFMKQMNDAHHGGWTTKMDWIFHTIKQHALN
Sequence of human phosphoinositide-3 kinase (PI3K) alpha (Q63787 whole entry partner): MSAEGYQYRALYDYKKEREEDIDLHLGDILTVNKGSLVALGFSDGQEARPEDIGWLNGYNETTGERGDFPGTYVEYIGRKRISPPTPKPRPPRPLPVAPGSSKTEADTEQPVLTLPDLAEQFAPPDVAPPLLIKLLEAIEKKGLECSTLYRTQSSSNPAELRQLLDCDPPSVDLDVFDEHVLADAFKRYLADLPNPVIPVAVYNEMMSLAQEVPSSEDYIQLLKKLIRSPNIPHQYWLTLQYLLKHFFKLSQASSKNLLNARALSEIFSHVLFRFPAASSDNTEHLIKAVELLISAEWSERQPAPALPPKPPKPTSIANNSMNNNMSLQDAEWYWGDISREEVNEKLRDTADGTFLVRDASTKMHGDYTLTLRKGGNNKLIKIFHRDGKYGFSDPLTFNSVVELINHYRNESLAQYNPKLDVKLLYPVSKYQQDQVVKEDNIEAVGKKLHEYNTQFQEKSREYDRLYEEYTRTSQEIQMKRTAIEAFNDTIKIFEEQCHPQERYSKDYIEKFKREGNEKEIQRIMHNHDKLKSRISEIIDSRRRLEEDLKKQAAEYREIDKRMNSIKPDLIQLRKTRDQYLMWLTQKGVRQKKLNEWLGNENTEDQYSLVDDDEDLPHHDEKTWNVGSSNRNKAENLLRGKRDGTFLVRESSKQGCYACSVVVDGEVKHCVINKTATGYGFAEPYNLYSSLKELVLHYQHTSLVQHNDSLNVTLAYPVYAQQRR

This test addresses human phosphoinositide-3 kinase (PI3K) alpha (Homo sapiens (Human), UniProt P42336). Briefly: PI3K-mediated Akt 1/2 (S473) phosphorylation in Rat-1 cells overexpressing PI3K alpha. Particulars: cellular assay, p-AKT(Ser473), read-out: Cell PI3K alpha IC50. Type of test: cell-based, rat cells expressing human PI3K alpha. The method, then:
2.1 Phosphoinositide-3 kinase (PI3K)-Mediated Akt 1/2 (S473) Phosphorylation in Rat-1 Cells
Rat-1 cells stably overexpressing a myristoylated form of the catalytic subunit of human phosphoinositide-3 kinase (PI3K) alpha, beta or delta were plated in 384-well plates at a density of 7500 (PI3K alpha), 6200 (PI3K beta), or 4000 (PI3K delta) cells in 30 ul complete growth medium (Dulbecco's modified Eagle's medium (DMEM high glucose) supplemented with 10% (v/v) fetal bovine serum, 1% (v/v) MEM non essential amino acids, 10 mM HEPES, 2 mM L-glutamine, 10 μg/mL puromycin and 1% (v/v) Penicillin/Streptomycin) and were incubated at […]/5% CO2/95% humidity for 24 h. Compounds were diluted in 384-well compound plates (compound master plates), to obtain 8-point serial dilutions for 40 test compounds in 90% DMSO, as well as 4 reference compounds plus 16 high controls and 16 low (inhibited) controls. Predilution plates were prepared by dispensing pipetting 250 nl of compound solutions into 384-well polypropylen plates (daugther plates), using a Hummingwell nanoliter dispenser. Compounds were prediluted by the addition of 49.75 ul complete growth medium. 10 ul of prediluted compound solution were transferred to the cell plate using a 384-well pipettor, resulting in a final DMSO concentration of 0.11%. Cells were incubated for 1 h at […]/5% CO2/95% humidity. The supernatant was removed, the cells were lysed in 20 ul of lysis buffer for AlphaScreen® SureFire® detection.
For detection of p-AKT(Ser473), the SureFire® p-Akt 1/2 (Ser473) Assay Kit (PerkinElmer, U.S.A.) was used. 5 ul of cell lysate was transferred to 384-well low volume Proxiplates for detection using a 384-well pipettor. Addition of AlphaScreen® SureFire® reagents was done according to the manufacturer's protocol. First, 5 ul of reaction buffer plus activation buffer mix containing AlphaScreen® acceptor beads was added, the plate was sealed, and incubated on a plate shaker for 2 hours at room temperature. Second, 2 ul of dilution buffer containing AlphaScreen® donor beads was added, and the plate was incubated on plate shaker as above for a further 2 hours. The plate was read on an AlphaScreen® compatible plate reader, using standard AlphaScreen® settings. Alternatively, p-AKT(Ser473) was detected with the CisBio HTRF Assay Kit: As positive control, 0.9 mM of 1-(3-(trifluoromethyl)-4-(piperazin-1-yl)phenyl)-8-(6-methoxypyridin-3-yl)-3-methyl-1H-imidazo[4,5-c]quinolin-2(3H)-one maleic acid salt in 90% (v/v) DMSO was added to the compound master plate. For compound testing, the cells were seeded at a density of 4000 (Rat-1_PI3Kdelta), 8000 (Rat-1_PI3Kalpha), or 6500 (Rat-1_PI3Kbeta) cells in 30 ul complete growth medium into 384-well plates, with a plastic surface promoting the adhesion of cells and their growth (assay plates) and were grown at 37° C./5% CO2/90% humidity for 24 h. Some 10 ul of the compound predilutions from the daughter plate were then transferred to the cells. After treatment with compound for 1 h, medium was removed and cells were lysed by the addition of 20 ul lysis buffer supplemented with blocking buffer. Detection of p-AKT(Ser473) was performed with the HTRF pAKT (Ser473) assay kit according to the manufacturer's instructions using 16 ul of cell lysate in a total detection volume of 20 ul.
A word on the IC50: it is the point on the concentration scale where inhibition reaches its midpoint. On to `COc1cncc(-c2cccc3nc([C@@H]4C[C@H](O)CN4c4nc(N)nc(C)c4C#N)n(-c4ccccc4)c(=O)c23)c1` [Example 25, 2-Amino-4-((2S,4S)-4-hydroxy-2-(5-(5-methoxypyridin-3-yl)-4-oxo-3-phenyl-3,4-dihydroquinazolin-2-yl)pyrrolidin-1-yl)-6-methylpyrimidine-5-carbonitrile], for which the IC50 amounted to 1900 nM. For the compound `COc1ncc(-c2cccc3nc([C@@H]4C[C@H](O)CN4c4nc(N)nc(C)c4C#N)n(-c4ccccc4)c(=O)c23)cn1` [Example 22, 2-Amino-4-((2S,4S)-4-hydroxy-2-(5-(2-methoxypyrimidin-5-yl)-4-oxo-3-phenyl-3,4-dihydroquinazolin-2-yl)pyrrolidin-1-yl)-6-methylpyrimidine-5-carbonitrile], the IC50 was over 10000 nM. Take `Cc1nc(N)nc(N2C[C@@H](O)C[C@H]2c2nc3cccc(-c4cncnc4)c3c(=O)n2-c2ccccc2)c1C#N` [Example 26, 2-Amino-4-((2S,4S)-4-hydroxy-2-(4-oxo-3-phenyl-5-(pyrimidin-5-yl)-3,4-dihydroquinazolin-2-yl)pyrrolidin-1-yl)-6-methylpyrimidine-5-carbonitrile]: the IC50 is over 6500 nM. The figure for `Cc1nc(N)nc(N2C[C@@H](O)C[C@H]2c2nc3cccc(-c4cnn(CCO)c4)c3c(=O)n2-c2ccccc2)c1C#N` [Example 28, 2-Amino-4-((2S,4S)-4-hydroxy-2-(5-(1-(2-hydroxyethyl)-1H-pyrazol-4-yl)-4-oxo-3-phenyl-3,4-dihydroquinazolin-2-yl)pyrrolidin-1-yl)-6-methylpyrimidine-5-carbonitrile] is over 10000 nM; for `Cc1nc(N)nc(N2C[C@@H](O)C[C@H]2c2nc3ccc(F)c(-c4cnn(C)c4)c3c(=O)n2-c2ccccc2)c1C#N` [Example 1, 2-Amino-4-((2S,4S)-2-(6-fluoro-5-(1-methyl-1H-pyrazol-4-yl)-4-oxo-3-phenyl-3,4-dihydroquinazolin-2-yl)-4-hydroxypyrrolidin-1-yl)-6-methylpyrimidine-5-carbonitrile] it is 2200 nM; for `Cc1nc(N)nc(N2CCC[C@H]2c2nc3cccc(-c4cnn(C)c4)c3c(=O)n2-c2ccccc2)c1C#N` [Example 13, (S)-2-Amino-4-methyl-6-(2-(5-(1-methyl-1H-pyrazol-4-yl)-4-oxo-3-phenyl-3,4-dihydroquinazolin-2-yl)pyrrolidin-1-yl)pyrimidine-5-carbonitrile] it is 1100 nM. The figure for `Cc1ncc(-c2cccc3nc([C@@H]4CCCN4c4nc(N)nc(C)c4C#N)n(-c4ccccc4)c(=O)c23)cn1` [Example 19, (S)-2-Amino-4-methyl-6-(2-(5-(2-methylpyrimidin-5-yl)-4-oxo-3-phenyl-3,4-dihydroquinazolin-2-yl)pyrrolidin-1-yl)pyrimidine-5-carbonitrile] is 5400 nM; for `COc1ncc(-c2cccc3nc([C@@H]4CCCN4c4nc(N)nc(C)c4C#N)n(-c4ccccc4)c(=O)c23)cn1` [Example 4, (S)-2-Amino-4-(2-(5-(2-methoxypyrimidin-5-yl)-4-oxo-3-phenyl-3,4-dihydroquinazolin-2-yl)pyrrolidin-1-yl)-6-methylpyrimidine-5-carbonitrile] it is 2800 nM; for `Cn1cc(-c2cccc3nc([C@@H]4CCCN4c4ncnc(N)c4C#N)n(-c4ccccc4)c(=O)c23)cn1` [Example 2, (S)-4-Amino-6-(2-(5-(1-methyl-1H-pyrazol-4-yl)-4-oxo-3-phenyl-3,4-dihydroquinazolin-2-yl)pyrrolidin-1-yl)pyrimidine-5-carbonitrile] it is 1300 nM.

As to `Cc1nc(N)nc(N2CCC[C@H]2c2nc3ccc(F)c(-c4cnn(C)c4)c3c(=O)n2-c2ccccc2)c1C#N` [Example 6, (S)-2-Amino-4-(2-(6-fluoro-5-(1-methyl-1H-pyrazol-4-yl)-4-oxo-3-phenyl-3,4-dihydroquinazolin-2-yl)pyrrolidin-1-yl)-6-methylpyrimidine-5-carbonitrile], the IC50 turned out to be 1400 nM. The result for `Cc1nc(N)nc(N2CCC[C@H]2c2nc3cccc(-c4cncnc4)c3c(=O)n2-c2ccccc2)c1C#N` [Example 17, (S)-2-Amino-4-methyl-6-(2-(4-oxo-3-phenyl-5-(pyrimidin-5-yl)-3,4-dihydroquinazolin-2-yl)pyrrolidin-1-yl)pyrimidine-5-carbonitrile] reads 5800 nM; that for `CCOc1ncc(-c2cccc3nc([C@@H]4CCCN4c4nc(N)nc(C)c4C#N)n(-c4ccccc4)c(=O)c23)cn1` [Example 32, (S)-2-Amino-4-(2-(5-(2-ethoxypyrimidin-5-yl)-4-oxo-3-phenyl-3,4-dihydroquinazolin-2-yl)pyrrolidin-1-yl)-6-methylpyrimidine-5-carbonitrile], 2400 nM; that for `Cc1nc(N)nc(N2C[C@@H](O)C[C@H]2c2nc3ccc(F)c(-c4cn(C)cn4)c3c(=O)n2-c2ccccc2)c1C#N` [Example 31, 2-Amino-4-((2S,4S)-2-(6-fluoro-5-(1-methyl-1H-imidazol-4-yl)-4-oxo-3-phenyl-3,4-dihydroquinazolin-2-yl)-4-hydroxypyrrolidin-1-yl)-6-methylpyrimidine-5-carbonitrile], over 10000 nM.

For the compound `COc1ncc(-c2c(F)ccc3nc([C@@H]4C[C@H](O)CN4c4nc(N)nc(C)c4C#N)n(-c4ccccc4)c(=O)c23)cn1` [Example 7, 2-Amino-4-((2S,4S)-2-(6-fluoro-5-(2-methoxypyrimidin-5-yl)-4-oxo-3-phenyl-3,4-dihydroquinazolin-2-yl)-4-hydroxypyrrolidin-1-yl)-6-methylpyrimidine-5-carbonitrile], the IC50 was determined as 4700 nM.

Turning to `COc1ccc(-c2cccc3nc([C@@H]4CCCN4c4nc(N)nc(C)c4C#N)n(-c4ccccc4)c(=O)c23)cn1` [Example 21, (S)-2-Amino-4-(2-(5-(6-methoxypyridin-3-yl)-4-oxo-3-phenyl-3,4-dihydroquinazolin-2-yl)pyrrolidin-1-yl)-6-methylpyrimidine-5-carbonitrile], the half-maximal inhibitory concentration (IC50) came to 2500 nM.

Regarding `COc1ncc(-c2cccc3nc([C@@H]4C[C@H](OC)CN4c4nc(N)nc(C)c4C#N)n(-c4ccccc4)c(=O)c23)cn1` [Example 12, 2-Amino-4-((2S,4S)-4-methoxy-2-(5-(2-methoxypyrimidin-5-yl)-4-oxo-3-phenyl-3,4-dihydroquinazolin-2-yl)pyrrolidin-1-yl)-6-methylpyrimidine-5-carbonitrile], the IC50 is 5900 nM. The result for `Cn1cc(-c2c(F)ccc3nc([C@@H]4CCCN4c4ncnc(N)c4C#N)n(-c4ccccc4)c(=O)c23)cn1` [Example 5, (S)-4-Amino-6-(2-(6-fluoro-5-(1-methyl-1H-pyrazol-4-yl)-4-oxo-3-phenyl-3,4-dihydroquinazolin-2-yl)pyrrolidin-1-yl)pyrimidine-5-carbonitrile] reads 3000 nM; that for `COc1ccc(-c2cccc3nc([C@@H]4C[C@H](O)CN4c4nc(N)nc(C)c4C#N)n(-c4ccccc4)c(=O)c23)cn1` [Example 27, 2-Amino-4-((2S,4S)-4-hydroxy-2-(5-(6-methoxypyridin-3-yl)-4-oxo-3-phenyl-3,4-dihydroquinazolin-2-yl)pyrrolidin-1-yl)-6-methylpyrimidine-5-carbonitrile], 1300 nM; that for `Cc1nc(N)nc(N2C[C@@H](F)C[C@H]2c2nc3cccc(-c4cnn(C)c4)c3c(=O)n2-c2ccccc2)c1C#N` [Example 30, 2-Amino-4-((2S,4S)-4-fluoro-2-(5-(1-methyl-1H-pyrazol-4-yl)-4-oxo-3-phenyl-3,4-dihydroquinazolin-2-yl)pyrrolidin-1-yl)-6-methylpyrimidine-5-carbonitrile], 2300 nM.

`Cn1cc(-c2c(F)ccc3nc([C@@H]4C[C@H](O)CN4c4ncnc(N)c4C#N)n(-c4ccccc4)c(=O)c23)cn1` [Example 8, 4-Amino-6-((2S,4S)-2-(6-fluoro-5-(1-methyl-1H-pyrazol-4-yl)-4-oxo-3-phenyl-3,4-dihydroquinazolin-2-yl)-4-hydroxypyrrolidin-1-yl) pyrimidine-5-carbonitrile]: the IC50 stood at 3200 nM.
